Literature values, collected in patent US20250134147A1, “METHODS AND COMPOSITIONS FOR IMPROVED SUGAR-LIKE TASTE” (ALMENDRA (THAILAND) LTD., priority 2021, published 2025).
Like-named read-outs stand apart in the source and are kept apart here.

Experiments:
[1] = for sweetness potency, times more potent than sucrose: sensory evaluations, Crammer and Ikan 1986; for sweetness potency, times higher than sucrose: relative to sucrose, Tanaka 1987 / Phillips 1989
[2] = comparison among steviol glycosides
[3] = Kinghorn 2002

SMILES | taste quality / sensory attributes [2] | sweetness potency, times higher than sucrose [1] | further results
C=C1C[C@@]23CC[C@H]4[C@@](C)(CCC[C@@]4(C)C(=O)O[C@@H]4O[C@H](CO)[C@@H](O)[C@H](O)[C@H]4O)[C@@H]2CC[C@]1(O[C@@H]1O[C@H](CO)[C@@H](O)[C@H](O[C@@H]2O[C@H](CO)[C@@H](O)[C@H](O)[C@H]2O)[C@H]1O[C@@H]1O[C@H](CO)[C@@H](O)[C@H](O)[C@H]1O)C3 [Rebaudioside A, (3R,4S,5S,6R)-3,4,5-trihydroxy-6-(hydroxymethyl)tetrahydro-2H-pyran-2-yl(4R,4αS,11αR,11βS)-10-(((2R,3R,5R,6R)-5-hydroxy-6-(hydroxymethyl)-3,4-bis(((2S,3R,4S,5S,6R)-3,4,5-trihydroxy-6-(hydroxymethyl)tetrahydro-2H-pyran-2-yl)oxy)tetrahydro-2H-pyran-2-yl)oxy)-4,11β-dimethyl-8-methylenetetradecahydro-6α,9-methanocyclohepta[a]naphthalene-4-carboxylate] | the least astringent, the least bitter, and the least persistent aftertaste |  | sweetness potency, times more potent than sucrose [1]: 350-450 times; taste quality / sensory attributes ([2]; listed as rebaudioside A): clearly surpasses stevioside and rebaudioside B
C=C1C[C@@]23CC[C@H]4[C@@](C)(CCC[C@@]4(C)C(=O)O[C@@H]4O[C@H](CO)[C@@H](O)[C@H](O)[C@H]4O)[C@@H]2CC[C@]1(O[C@@H]1O[C@H](CO)[C@@H](O)[C@H](O)[C@H]1O[C@@H]1O[C@H](CO)[C@@H](O)[C@H](O)[C@H]1O)C3 [Stevioside] |  | 110-270 times | 
C=C1C[C@@]23CC[C@H]4[C@@](C)(CCC[C@@]4(C)C(=O)O)[C@@H]2CC[C@]1(O[C@@H]1O[C@H](CO)[C@@H](O)[C@H](O)[C@H]1O[C@@H]1O[C@H](CO)[C@@H](O)[C@H](O)[C@H]1O)C3 [Steviolbioside] | significantly inferior to that of stevioside |  | 
C=C1C[C@@]23CC[C@H]4[C@@](C)(CCC[C@@]4(C)C(=O)O[C@@H]4O[C@H](CO)[C@@H](O)[C@H](O)[C@H]4O[C@@H]4O[C@H](CO)[C@@H](O)[C@H](O)[C@H]4O)[C@@H]2CC[C@]1(O[C@@H]1O[C@H](CO)[C@@H](O)[C@H](O[C@@H]2O[C@H](CO)[C@@H](O)[C@H](O)[C@H]2O)[C@H]1O[C@@H]1O[C@H](CO)[C@@H](O)[C@H](O)[C@H]1O)C3 [Rebaudioside D] | very desirable taste profile |  | 
C=C1C[C@@]23CCC4[C@@](C)(CCC[C@@]4(C)C(=O)OC4O[C@H](CO)[C@@H](O)[C@H](O)[C@H]4O)C2CC[C@]1(O[C@@H]1O[C@H](CO)[C@@H](O)[C@H](O[C@@H]2O[C@H](CO)[C@@H](O)[C@H](O)[C@H]2O)[C@H]1O[C@H]1O[C@H](C)[C@@H](O)[C@H](O)[C@@H]1O)C3 (some centres unmarked) [Rebaudioside C] |  | 40-60 times | 
C=C1C[C@@]23CC[C@H]4[C@@](C)(CCC[C@@]4(C)C(=O)O)[C@@H]2CC[C@]1(O[C@@H]1O[C@H](CO)[C@@H](O)[C@H](O[C@@H]2O[C@H](CO)[C@@H](O)[C@H](O)[C@H]2O)[C@H]1O[C@@H]1O[C@H](CO)[C@@H](O)[C@H](O)[C@H]1O)C3 [Rebaudioside B, (4R,4αS,6αR,9S,11αR,11βS)-9-(((2S,3R,5R,6R)-5-hydroxy-6-(hydroxymethyl)-4-(((2S,3R,4S,5S,6R)-3,4,5-trihydroxy-6-(hydroxymethyl)tetrahydro-2H-pyran-2-yl)oxy)-3-(((3R,4S,5S,6R)-3,4,5-trihydroxy-6-(hydroxymethyl)tetrahydro-2H-pyran-2-yl)oxy)tetrahydro-2H-pyran-2-yl)oxy)-4,11β-dimethyl-8-methylenetetradecahydro-6α,9-methanocyclohepta[a]naphthalene-4-carboxylic acid] |  |  | sweetness potency, times more potent than sucrose [1]: 300-350 times; water solubility [3]: about 0.1%
C=C1C[C@@]23CC[C@H]4[C@@](C)(CCC[C@@]4(C)C(=O)O[C@@H]4O[C@H](CO)[C@@H](O)[C@H](O)[C@H]4O)[C@@H]2CC[C@]1(O[C@@H]1O[C@H](CO)[C@@H](O)[C@H](O)[C@H]1O[C@@H]1O[C@@H](C)[C@H](O)[C@@H](O)[C@H]1O)C3 [Dulcoside A] |  | 30 times | 
C=C1C[C@@]23CC[C@H]4[C@@](C)(CCC[C@@]4(C)C(=O)O[C@@H]4O[C@H](CO)[C@@H](O)[C@H](O)[C@H]4O)[C@@H]2CC[C@]1(O[C@@H]1O[C@H](CO)[C@@H](O)[C@H](O)[C@H]1O)C3 [rubusoside] | significantly inferior to that of stevioside |  | 
